Here are results for ten molecules from PMC12112033, “Application of Lipophilic Prodrug Charge Masking Strategy to Obtain Novel, Potential Oxytocin Prodrugs” (International Journal of Molecular Sciences, 2025).

A short description of data set [1]: in vitro. The conditions noted are these: for Papp at 5 h, 10 µM: PAMPA, pH 7.4, Papp ± SD (PAMPA). An excerpt:
The permeability of OT and its prodrugs was estimated by the PAMPA test (Corning, Gentest PAMPA Plate System). The PAMPA method is a common method for the permeability evaluation of early drug candidates. Although this system lacks transporters, paracellular pathway enzymes, and other cell-associated processes, it measures passive diffusion, the primary mechanism by which drugs traverse biological barriers. Consequently, due to its low cost, high throughput, and relative handling ease, it serves as screening tool for predicting drugs absorption potential. The PAMPA reflects the passive transport through biological membranes, and its results are reported to correlate with those obtained from the Caco-2 cell model.
A Gentest Pre-coated PAMPA Plate System was purchased from Corning® (Tewksbury, MA, USA). The assay was performed according to the provider instructions, following Caco-2 convention, where the top well is a donor well. The 10 µM solutions of OT, prodrugs, and permeability markers were prepared in PBS buffer, pH 7.4, from 1 mM stock solutions in dimethyl sulfoxide (DMSO). A total of 300 µL per well of tested compounds was added to the donor, filter plate, which, after distribution of all samples, was coupled with acceptor plate filed with 200 µL of phosphate-buffered saline (PBS) per well. All compounds were measured in triplicate. After 5 h of incubation at 25 °C, 200 µL samples were collected from acceptor and donor wells and analyzed using UHPLC-MS to determine concentrations of compounds.

For data set [2], the system named is Caco-2 cell monolayer. The data set is described as follows: Caco-2 monolayer integrity by TEER before and after treatment. Format: cell-based, human. The conditions noted are these: 100 µg/mL, 2 h treatment. As to the method: This assessment was performed using a dose (100 µg/mL) and treatment time (2 h) similar to those applied in the intestinal transport analysis.
Caco-2 cells were cultured at 37 °C under a 5% CO2 atmosphere using Dulbecco’s Modified Eagle’s Medium (DMEM), supplemented with 20% (v/v) fetal bovine serum, non-essential amino acids 100×, and gentamycin (50 mg/mL). […] The culture medium was replaced every 2 days.

The subject of data set [3] is Caco-2 cell monolayer. The data set is described as follows: in vitro. On the procedure:
(§1) The transport of OT and its derivatives (Oct-OT, Hoc-OT, Dec-OT, Dod-OT) selected for further in vitro studies was evaluated at a target concentration of approximately 100 µg/mL. Intestinal transport was initiated by adding the tested compounds to the apical compartment for absorptive transport determination. The solutions from the acceptor compartments were sampled at 20-minute intervals to analyze the concentration of transported compounds.
(§2) The Caco-2 cell line (ATCC HTB-37), derived from human colon adenocarcinoma, was obtained from the American Type Culture Collection (ATCC, Manassas, VA, USA). Caco-2 cells were cultured at 37 °C under a 5% CO2 atmosphere using Dulbecco’s Modified Eagle’s Medium (DMEM), supplemented with 20% (v/v) fetal bovine serum, non-essential amino acids 100×, and gentamycin (50 mg/mL). For experiments, the Caco-2 cells were plated at a density of 4 × 10^5 cells per cm^2 on polyethylene terephthalate (PET) capillary pore membranes with a pore size of 0.4 μm and a growth surface area of 1.13 cm^2 (Greiner PET hanging). The culture medium was replaced every 2 days. All experiments were performed on differentiated Caco-2 cell monolayers 21 days post-seeding. To check the integrity of the Caco-2 monolayer, transepithelial electrical resistance (TEER) was measured by employing the Millicell Electrical Resistance System (Millipore, Bedford, MA, USA). Moreover, fluorescein-5(6)-sulfonic acid was used as a transport marker, added to the apical side of the Caco-2 cultures at 200 μg/mL concentration. Fluoresceinated sulfonic acid, with a molecular weight of 478 Da, is a hydrophilic, charged molecule at physiological pH and is considered cell impermeable. Unless specified otherwise, all chemicals were purchased from Merck KGaA (Darmstadt, Germany).
(§3) The analyzed compounds at non-cytotoxic concentration of approximately 100 μg/mL were prepared in Hank’s balanced salt solution (HBSS), which was adapted as a transport medium. […] Before the experiments, the Caco-2 monolayers were washed twice with HBSS and pre-incubated at 37 °C for 30 min. Transport was initiated by adding HBSS to the acceptor (basolateral) side and the analyzed compound to the donor (apical) side, which mimicked absorptive intestinal transport. The Caco-2 cell cultures were placed in the incubator (37 °C) and continuously agitated using a plate shaker (120 rpm). At 20 min intervals, a sample was taken from the acceptor compartment, and HPLC analyzed the concentration of the transported compound. Each sample volume was replaced with fresh HBSS warmed to 37 °C. To quantify the transport of compound across the Caco-2 cell monolayer, the apparent permeability coefficient (Papp) was determined according to the protocol previously described by Tavelin et al.. […]

Data set [4] in a line: in vitro. The note with it: human, Caco-2. As to the method: as §1, §2, §3
For data set [5] the following is noted: cited from earlier work.

By Papp is commonly meant the rate of passage across a membrane or cell layer, normalised by area and donor concentration. In the case of `CCCCOC(=O)N[C@H]1CSSC[C@@H](C(=O)N2CCC[C@H]2C(=O)N[C@@H](CC(C)C)C(=O)NCC(N)=O)NC(=O)[C@H](CC(N)=O)NC(=O)[C@H](CCC(N)=O)NC(=O)[C@H]([C@@H](C)CC)NC(=O)[C@H](Cc2ccc(O)cc2)NC1=O` [But-OT, But-Cys(&)-Tyr-Ile-Gln-Asn-Cys(&)-Pro-Leu-Gly-NH2], in “in vitro [1]”, the Papp at 5 h, 10 µM amounted to 2.2 ± 0.3 ×10⁻⁶ cm/s.
Regarding `Cn1c(=O)c2c(ncn2C)n(C)c1=O` [Caffeine, reference compound], in the data set “in vitro [1]” (5 h, 10 µM, pH 7.4), the “Mass Retention (PAMPA)” value is recorded as 26%. The molecule also yielded a Papp at 5 h, 10 µM in the data set “in vitro [1]” of 22 ± 11.2 ×10⁻⁶ cm/s.
Turning to `CCCCCCCCCCOC(=O)N[C@H]1CSSC[C@@H](C(=O)N2CCC[C@H]2C(=O)N[C@@H](CC(C)C)C(=O)NCC(N)=O)NC(=O)[C@H](CC(N)=O)NC(=O)[C@H](CCC(N)=O)NC(=O)[C@H]([C@@H](C)CC)NC(=O)[C@H](Cc2ccc(O)cc2)NC1=O` [Dec-OT, Dec-Cys(&)-Tyr-Ile-Gln-Asn-Cys(&)-Pro-Leu-Gly-NH2], the “Caco-2 monolayer integrity (TEER before and after treatment)” value (shortened to “Caco-2 monolayer integrity”) in the data set on Caco-2 cell monolayer [2] was “stable and high monolayer integrity”. For the same molecule, in “in vitro [1]”, the “PAMPA permeability (in words)” value was “significantly better permeability” and the apparent permeability (Papp) at 5 h, 10 µM came out at 9.28 ± 6.11 ×10⁻⁶ cm/s.
For `CCCCCCCCCCCCOC(=O)N[C@H]1CSSC[C@@H](C(=O)N2CCC[C@H]2C(=O)N[C@@H](CC(C)C)C(=O)NCC(N)=O)NC(=O)[C@H](CC(N)=O)NC(=O)[C@H](CCC(N)=O)NC(=O)[C@H]([C@@H](C)CC)NC(=O)[C@H](Cc2ccc(O)cc2)NC1=O` [Dod-OT, Dod-Cys(&)-Tyr-Ile-Gln-Asn-Cys(&)-Pro-Leu-Gly-NH2], the “Caco-2 monolayer integrity” value in the data set on Caco-2 cell monolayer [2] is “stable and high monolayer integrity”. Besides, in “in vitro [1]”, the “PAMPA permeability (in words)” value was “poor permeability” and the Papp at 5 h, 10 µM was 1.08 ± 0.95 ×10⁻⁶ cm/s.
With `CCOC(=O)N[C@H]1CSSC[C@@H](C(=O)N2CCC[C@H]2C(=O)N[C@@H](CC(C)C)C(=O)NCC(N)=O)NC(=O)[C@H](CC(N)=O)NC(=O)[C@H](CCC(N)=O)NC(=O)[C@H]([C@@H](C)CC)NC(=O)[C@H](Cc2ccc(O)cc2)NC1=O` [Et-OT, Et-Cys(&)-Tyr-Ile-Gln-Asn-Cys(&)-Pro-Leu-Gly-NH2], in the data set “in vitro [1]”, the Papp at 5 h, 10 µM stood at 2.78 ± 0.17 ×10⁻⁶ cm/s.
Usually Papp A→B stands for how fast a substance crosses the layer from the apical side. Higher therefore signals fast passage. Turning to `CCCCCCOC(=O)N[C@H]1CSSC[C@@H](C(=O)N2CCC[C@H]2C(=O)N[C@@H](CC(C)C)C(=O)NCC(N)=O)NC(=O)[C@H](CC(N)=O)NC(=O)[C@H](CCC(N)=O)NC(=O)[C@H]([C@@H](C)CC)NC(=O)[C@H](Cc2ccc(O)cc2)NC1=O` [Hoc-OT, Hoc-Cys(&)-Tyr-Ile-Gln-Asn-Cys(&)-Pro-Leu-Gly-NH2], in the data set with Caco-2 cell monolayer [2], the “Caco-2 monolayer integrity” value is “stable and high monolayer integrity”. For the same molecule, in the data set on Caco-2 cell monolayer [3], the “Caco-2 permeability compared to OT (in words)” value is listed as “lower permeability than OT”. Besides, the Papp A→B in the data set “in vitro [4]” is 1.99 ± 0.33 ×10⁻⁶ cm/s. In the data set “in vitro [1]”, the “PAMPA permeability (in words)” value was “significantly better permeability” and the Papp at 5 h, 10 µM was 4.67 ± 0.66 ×10⁻⁶ cm/s.
In the data set “in vitro [1]”, `CC[C@H](C)[C@@H]1NC(=O)[C@H](Cc2ccc(O)cc2)NC(=O)[C@@H](NC(=O)OCCOC)CSSC[C@@H](C(=O)N2CCC[C@H]2C(=O)N[C@@H](CC(C)C)C(=O)NCC(N)=O)NC(=O)[C@H](CC(N)=O)NC(=O)[C@H](CCC(N)=O)NC1=O` [MeOEt-OT, MeOEt-Cys(&)-Tyr-Ile-Gln-Asn-Cys(&)-Pro-Leu-Gly-NH2] showed an apparent permeability coefficient (Papp) at 5 h, 10 µM of 2.37 ± 0.52 ×10⁻⁶ cm/s.
`CC[C@H](C)[C@@H]1NC(=O)[C@H](Cc2ccc(O)cc2)NC(=O)[C@@H](N)CSSC[C@@H](C(=O)N2CCC[C@H]2C(=O)N[C@@H](CC(C)C)C(=O)NCC(N)=O)NC(=O)[C@H](CC(N)=O)NC(=O)[C@H](CCC(N)=O)NC1=O` [OT, Cys(&)-Tyr-Ile-Gln-Asn-Cys(&)-Pro-Leu-Gly-NH2, reference compound]: the “Caco-2 monolayer integrity” value in the data set on Caco-2 cell monolayer [2] is “stable and high monolayer integrity”. Further, the “Time to peak levels after intranasal administration” value in data set [5] is 15 to 30 min. In the data set “in vitro [4]”, the Papp A→B is 7.74 ± 0.53 ×10⁻⁶ cm/s. For the same molecule, the Papp at 5 h, 10 µM in the data set “in vitro [1]” turned out to be 2.2 ×10⁻⁶ cm/s.
Regarding `CCCCCCCCOC(=O)N[C@H]1CSSC[C@@H](C(=O)N2CCC[C@H]2C(=O)N[C@@H](CC(C)C)C(=O)NCC(N)=O)NC(=O)[C@H](CC(N)=O)NC(=O)[C@H](CCC(N)=O)NC(=O)[C@H]([C@@H](C)CC)NC(=O)[C@H](Cc2ccc(O)cc2)NC1=O` [Oct-OT, Oct-Cys(&)-Tyr-Ile-Gln-Asn-Cys(&)-Pro-Leu-Gly-NH2], the “Caco-2 monolayer integrity” value with Caco-2 cell monolayer [2] is “stable and high monolayer integrity”. The molecule also came in with a Papp A→B in “in vitro [4]” of 14 ± 2.27 ×10⁻⁶ cm/s. In addition, in the data set “in vitro [1]”, the “PAMPA permeability (in words)” value was “significantly better permeability” and the apparent permeability (Papp) at 5 h, 10 µM came out at 5.93 ± 0.86 ×10⁻⁶ cm/s.
In the case of `CCCOC(=O)N[C@H]1CSSC[C@@H](C(=O)N2CCC[C@H]2C(=O)N[C@@H](CC(C)C)C(=O)NCC(N)=O)NC(=O)[C@H](CC(N)=O)NC(=O)[C@H](CCC(N)=O)NC(=O)[C@H]([C@@H](C)CC)NC(=O)[C@H](Cc2ccc(O)cc2)NC1=O` [Prop-OT, Prop-Cys(&)-Tyr-Ile-Gln-Asn-Cys(&)-Pro-Leu-Gly-NH2], in “in vitro [1]”, the Papp at 5 h, 10 µM worked out at 2.97 ± 0.64 ×10⁻⁶ cm/s.
